Like-named read-outs stand apart in the source and are kept apart here.
Key:
[1] = system: 9xTEL DNA (TTAGGG)9; assay: Circular dichroism thermal melt of 9xTEL DNA; design: species or system human; conditions: 10:1 small molecule:DNA
Excerpt: As the native gels were insufficient to identify the types of secondary structures formed by the ssDNA templates, we turned to circular dichroism (CD) for more information. We first examined 9xTEL in NaCl; with positive peaks at 290 and 240 nm and a negative peak at 260 nm, the spectrum matched published spectra for antiparallel GQ formation (Fig. 5A). We also collected spectra of 9xTEL in Na^+/K^+ and in K^+ only, which were both consistent with hybrid GQ (Supplemental Fig. S4A,B). Then we added TMPyP4 to 9xTEL at a ratio of 10:1 in each salt condition. […] We performed thermal melts of 9xTEL in Na^+ with and without TMPyP4, monitoring the signal from the positive peak at 290 nm and the negative peak at 260 nm (Fig. 5B). We found the drug increased the melting temperature (Tm) by about 10°C. Thus, 9xTEL DNA in Na^+ forms an antiparallel GQ that is stabilized by TMPyP4, consistent with previous studies ([Martino et al. 2009]).
(§1) CD samples contained 250 nM DNA in 75 mM NaCl and 50 mM KCl (Na^+/K^+), or 125 mM NaCl, KCl, or LiCl, 0.2× reaction buffer (10 mM Tris-HCl pH 8.0, 0.4 mM MgCl2, 0.2 mM spermidine, and 1 mM β-mercaptoethanol), and 0.02% DMSO; those with inhibitors also included 2.5 µM TMPyP4 or PDS. Baseline control samples consisted of 1× corresponding salt and 0.2× reaction buffer.
(§2) Samples containing DNA, salt, and buffer were placed in 95°C heat block for 10 min and cooled at room temperature for 30 min. PDS, TMPyP4, or DMSO was added and samples were incubated at 30°C for 30 min; 1.8 mL was added to a 10 mm path length cuvette and loaded into a Chirascan Plus Circular Dichroism and Fluorescence Spectrometer (Applied Photophysics). Spectra were collected between 360 and 220 nm with a step size of 1 nm. Three repeats were averaged and smoothed with a second-order polynomial with 10 neighbors on each side (Prism).
Continuous ramped thermal melts were performed at the indicated wavelengths with a 2 nm bandwidth. The temperature was increased from 20°C to 90°C at a rate of 1°C/min with a time-per-point of 12 sec. […]

[2] = target: CST–PP (CST–polymerase α–primase); assay: CST–PP C-strand synthesis inhibition; format: biochemical, human; conditions: for IC50: 25 nM CST–PP, 25 nM template, read-out: IC50synthesis
Description: Telomeric C-strand synthesis was performed with CST–PP purified from cultured human cells (HEK293T), a synthetic telomeric DNA template (9xTEL, (TTAGGG)9), ribonucleotides to allow primase activity, and deoxynucleotides including α-^32P-dATP to monitor polymerase α extension. To test whether TMPyP4 would inhibit DNA synthesis by CST–PP, we preincubated 25 nM 9xTEL with increasing concentrations of the drug, then added 25 nM CST–PP and nucleotides and observed C-strand synthesis by gel electrophoresis (Fig. 1A, left). To serve as a size marker and recovery control, a small fraction of the template (T) was radiolabeled. The expected synthesis products were observed, all smaller than the 54-nt template (Supplemental Fig. S2A). The limited extension reflects the limited processivity of CST–PP, and the 6-nt ladder of products is due to multiple initiation sites on the 6-nt repeat template ([Zaug et al. 2022]).
(§3) CST–PP was purified from HEK 293T/17 cells (CRL-11268, ATCC), as previously described ([Zaug et al. 2021], [2022]). Briefly, cells were transfected with 3xFLAG-CTC1, Myc-STN1, and HA-TEN1 at a ratio of 1:1:1, expanded and grown for 48 h, and collected. The complex was purified by successive anti-FLAG and anti-HA immunoprecipitation. Endogenous Polα–primase copurifies with CST ([Zaug et al. 2022]). The purity of the complex was verified by silver staining and concentrations were determined by western blot analysis ([Zaug et al. 2022]).
Reactions (10 μL) contained 25 nM CST–PP and 25 nM single-stranded template DNA in 1× reaction buffer (50 mM Tris-HCl pH 8.0, 2 mM MgCl2, 1 mM spermidine, and 5 mM β-mercaptoethanol), 1× Na^+/K^+ (75 mM KCl and 50 mM NaCl) or 1× Li^+ (125 mM LiCl) salts, rNTPs (0.2 mM each CTP, UTP, ATP), and dNTPs (0.5 mM dCTP, 0.5 mM dTTP, 0.33 μM [α-^32P]dATP [300 Ci mmol^–1], 0.29 μM unlabeled dATP), the indicated concentrations of TMPyP4 or PDS, and 0.2% DMSO.
DNA templates and small molecule dilutions were prepared fresh immediately before each use. A small proportion of the template DNA was 5′ radiolabeled (typically ∼0.1–0.5 nM, 5000 counts per minute per reaction) to serve as a recovery and loading control and internal size marker. CST–PP generated more products with 9xnoGG in Na^+/K^+ than in other conditions, so in that condition, 5× more radioactive template was used (keeping total DNA at 25 nM) so that the control signal was not overwhelmed by the product signal. DNA templates in buffer and designated salt were placed in 95°C heat block for 5 min and cooled at room temperature for 30 min. Dilutions of PDS or TMPyP4 in 1% DMSO (or 1% DMSO only for no inhibitor condition) were added (final 0.2% DMSO), and mixtures were incubated in 30°C water bath for 30 min. CST–PP was added and mixtures were returned to water bath for 30 min. NTPs were added and the reaction proceeded at 30°C for 1 h; 50 µL stop mix (3.6 M ammonium acetate and 0.2 mg mL^−1 glycogen) was then added.
Quenched reactions were cleaned up using the Oligo Clean & Concentrator kit (D4060, Zymo) and eluted in water. An equivalent volume of 2× loading dye (95% formamide, 20 mM EDTA, and 0.05% each bromophenol blue and xylene cyanol) was added. Samples were boiled for 5 min, then loaded on a 10% acrylamide, 7 M urea, and 1× TBE gel. Molecular weight ladders were generated by telomerase as above (no small molecule). Gels were run at 30 W until the bromophenol blue was ∼2 in from the bottom (∼1–1.5 h) and dried on Whatman 3 mm paper at 80°C under a vacuum for 15–30 min. Gels were then exposed to a phosphorimager screen, which was imaged with Amersham Typhoon scanner 5 and analyzed using ImageQuant. The intensity of synthesis was normalized to the intensity of the loading control in the same lane. Relative synthesis was calculated by dividing normalized synthesis at each inhibitor concentration by the normalized synthesis without inhibitor. […]

[3] = target: T1, telomerase (Homo sapiens, UniProt O14746); assay: Telomerase inhibition (direct primer extension, 3xTEL primer); format: biochemical
T1 construct: 3xFLAG (N); made in house; host or cells: HEK293T
Description: Telomerase reactions (20 µL) contained 2 nM telomerase and 50 nM 3xTEL DNA in 1× telomerase activity buffer (50 mM Tris-HCl pH 8.0, 2 mM MgCl2, 1 mM spermidine, 5 mM β-mercaptoethanol, 75 mM KCl, and 50 mM NaCl), and dNTPs (0.5 mM dGTP, 0.5 mM dTTP, 0.33 μM [α-^32P]dATP [300 Ci mmol^–1], 3.3 μM unlabeled dATP), the indicated concentrations of TMPyP4 or PDS, and 10% DMSO. All components were mixed, and the samples were incubated at 30°C for 1 h. Reactions were quenched with 100 µL LC stop mix (3.6 M ammonium acetate, 0.2 mg mL^−1 glycogen, and a 16 nt ^32P-labeled loading control) and ethanol precipitated. Pellets were dried and dissolved in equal volumes of water and loading dye (95% formamide, 20 mM EDTA, and 0.05% each bromophenol blue and xylene cyanol), then boiled and run on a sequencing-style 10% acrylamide, 7 M urea, 1× TBE gel. The bromophenol blue dye was run to the bottom of the gel (∼1.75 h). The gel was removed from the glass plate using Whatman 3 mm paper and then dried at 80°C under a vacuum for 15–30 min. Gels were then exposed to a phosphorimager screen, which was imaged on a Typhoon FLA9500 scanner (GE Life Sciences) and analyzed by ImageQuant TL v.8.1.0.0 (GE Life Sciences). […] Relative activity was calculated by dividing normalized synthesis at each inhibitor concentration by the normalized synthesis without inhibitor. […]

[4] = target: CST–PP (CST–polymerase α–primase); assay: CST–PP binding to template DNA (EMSA) inhibition; design: species or system human; conditions: 25 nM CST–PP, 25 nM template, read-out: IC50binding
Description: To test directly if TMPyP4 inhibited CST–PP by preventing association with the templates, we next measured the effect of the drug on the proportion of DNA bound by CST–PP. We used the same conditions as in the synthesis reaction and observed that the DNA was about half bound in the absence of an inhibitor. We prepared DNA templates with an increasing concentration of TMPyP4 as before, then incubated with CST–PP and analyzed by EMSA (electrophoretic mobility shift assay) (Fig. 2A). By normalizing the fraction of DNA bound at each concentration of inhibitor to fraction bound without drug, we determined IC50 values for binding (IC50binding) in the two salts for both 9xTEL and 9xnoGG (Fig. 2B; Table 1).
as §3
Binding reactions were prepared identically to synthesis reactions, except glycerol (10% final) was added in place of the NTP mix. DNA and small molecules were incubated for 30 min at 30°C, then CST was added and incubation continued for another hour. Samples were loaded onto a 1× TBE 0.7% agarose gel and run at 70 V for 75 min at 4°C. The gels were placed on Hybond N^+ atop Whatman 3 mm paper and dried under a vacuum at 80°C for 1 h. They were then exposed to a phosphorimager screen, which was imaged using an Amersham Typhoon scanner 5. Binding was analyzed using ImageQuant; fraction bound was determined by dividing the number of counts in the bound band by the total number of counts in the lane, not including the well. Relative binding was calculated by dividing the fraction bound at each inhibitor concentration by the fraction bound without inhibitor. Results were plotted and analyzed as above.

[5] = system: 9xnoGG DNA (TGAGTG)9; assay: Circular dichroism thermal melt of 9xnoGG DNA; conditions: 10:1 small molecule:DNA; for thermal melt transition temperature: CD at 260 and 240 nm
Description: We performed thermal melts of 9xnoGG in Na^+ and Li^+ and monitored the signal at the predominant peaks (positive at 260 nm and negative at 240 nm). The curves were biphasic, with an initial sharp transition at ∼26°C and a minor, broader transition ∼40°C (Fig. 5E). We wondered whether the first transition might represent the dissociation of a dimeric species and collected a full CD spectrum of 9xnoGG at both 12°C and 30°C. While the spectra were very similar, the amplitudes of the positive and negative peaks at 12°C were nearly twice that of the same sample at 30°C (Supplemental Fig. S5B). CD peak attenuation is consistent with a dimer-to-monomer transition ([Kypr et al. 2009]; [Vorlíčková et al. 2012]).
as §1, §2
Continuous ramped thermal melts were performed at the indicated wavelengths with a 2 nm bandwidth. The temperature was increased from 20°C to 90°C at a rate of 1°C/min with a time-per-point of 12 sec. Positive peaks were normalized to 1 at the lowest temperature, and negative peaks were normalized to −1 at the lowest temperature. Spectra were smoothed as above.

T1 sequence (O14746 whole entry): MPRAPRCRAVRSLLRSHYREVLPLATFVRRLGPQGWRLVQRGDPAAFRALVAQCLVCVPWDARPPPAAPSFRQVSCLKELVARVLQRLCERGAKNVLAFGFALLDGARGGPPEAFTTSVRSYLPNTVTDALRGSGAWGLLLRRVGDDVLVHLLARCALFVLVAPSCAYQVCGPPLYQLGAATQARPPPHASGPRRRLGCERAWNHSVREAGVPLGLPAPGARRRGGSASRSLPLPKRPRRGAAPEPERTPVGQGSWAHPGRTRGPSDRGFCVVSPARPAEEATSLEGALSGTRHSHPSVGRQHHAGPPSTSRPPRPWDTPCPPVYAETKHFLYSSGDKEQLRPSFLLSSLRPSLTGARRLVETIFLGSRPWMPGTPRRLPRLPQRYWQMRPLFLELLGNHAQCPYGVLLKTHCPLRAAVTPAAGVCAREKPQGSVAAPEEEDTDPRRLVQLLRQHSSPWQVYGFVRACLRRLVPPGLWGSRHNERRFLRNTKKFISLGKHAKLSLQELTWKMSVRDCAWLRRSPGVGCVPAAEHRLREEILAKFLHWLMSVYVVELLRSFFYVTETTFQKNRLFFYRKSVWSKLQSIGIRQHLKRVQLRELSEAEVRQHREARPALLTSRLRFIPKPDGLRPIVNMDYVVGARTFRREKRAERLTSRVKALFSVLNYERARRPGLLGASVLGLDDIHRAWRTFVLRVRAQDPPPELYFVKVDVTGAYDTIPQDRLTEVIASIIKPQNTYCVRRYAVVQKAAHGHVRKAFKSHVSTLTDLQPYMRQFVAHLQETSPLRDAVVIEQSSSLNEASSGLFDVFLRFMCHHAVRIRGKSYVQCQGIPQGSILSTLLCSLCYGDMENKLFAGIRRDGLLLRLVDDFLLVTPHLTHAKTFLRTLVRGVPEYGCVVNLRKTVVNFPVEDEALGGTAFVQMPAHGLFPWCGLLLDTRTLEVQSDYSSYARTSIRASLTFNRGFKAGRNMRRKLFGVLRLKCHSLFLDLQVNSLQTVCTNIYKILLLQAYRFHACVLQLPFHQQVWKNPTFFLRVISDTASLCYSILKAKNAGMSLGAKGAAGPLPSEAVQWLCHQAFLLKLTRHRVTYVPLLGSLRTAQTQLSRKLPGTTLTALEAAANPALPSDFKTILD

NCCOc1cc(C(=O)Nc2cc(OCCN)c3ccccc3n2)nc(C(=O)Nc2cc(OCCN)c3ccccc3n2)c1 [PDS, pyridostatin]
stabilization in full spectrum thermal melt ([1]; 9xTEL in Li+): considerable stabilization | stabilization of GQ secondary structure in thermal melt ([1]; 9xTEL in NaCl, complex could not be entirely melted, no Tm calculated): substantial stabilization | IC50 ([2]; template 9xTEL, Li+): 110 nM | IC50 ([2]; template 9xTEL, Na+/K+): 140 nM | IC50 ([2]; template 9xnoGG, Li+): 180 nM | IC50 ([2]; template 9xnoGG, Na+/K+): 200 nM | IC50 ([3]; 2 nM telomerase, 50 nM 3xTEL DNA primer, 75 mM KCl/50 mM NaCl, 30°C, 1 h, read-out: half maximal inhibitory concentration (IC50) of telomerase): 520 nM | IC50 ([4]; template 9xTEL, Li+): 140 nM | IC50 ([4]; template 9xTEL, Na+/K+): 110 nM | IC50 ([4]; template 9xnoGG, Li+): 160 nM | IC50 ([4]; template 9xnoGG, Na+/K+): 120 nM

C[n+]1ccc(-c2c3nc(c(-c4cc[n+](C)cc4)c4ccc([nH]4)c(-c4cc[n+](C)cc4)c4ccc([nH]4)c(-c4cc[n+](C)cc4)c4nc2C=C4)C=C3)cc1 [TMPyP4]
increase of melting temperature (Tm) ([1]; 9xTEL in Na+, CD at 290 and 260 nm): about 10 °C | thermal melt transition temperature ([5]; 9xnoGG in Li+): 52 °C | thermal melt transition temperature ([5]; 9xnoGG in Na+): 52 °C | increase of melting temperature of dimeric 9xnoGG ([5]; 9xnoGG): over 20 °C | IC50synthesis in Li+ relative to Na+/K+ (fold higher) ([2]; template 9xTEL): about fourfold | IC50 ([2]; template 9xTEL, Li+): 1000 nM | IC50 ([2]; template 9xTEL, Na+/K+): 250 nM | IC50 ([2]; template 9xnoGG, Li+): 310 nM | IC50 ([2]; template 9xnoGG, Na+/K+): 220 nM | IC50 [3]: 6400 nM | IC50 ([4]; template 9xTEL, Li+): 840 nM | IC50 ([4]; template 9xTEL, Na+/K+): 260 nM | IC50 ([4]; template 9xnoGG, Li+): 200 nM | IC50 ([4]; template 9xnoGG, Na+/K+): 190 nM

Reference: paper PMC11331414, “Small molecule telomerase inhibitors are also potent inhibitors of telomeric C-strand synthesis” (RNA, 2024)
